# Source: patent US20090118286A1, “Heterobicyclic Acrylamides” (Bayer Cropscience AG, priority 2005, published 2009)
# Test: log P determination by HPLC (EEC Directive 79/831 Annex V.A8, gradient method)
# Format: physicochemical
Physical data (logP),Physical data: log P,Compound
3.85,,O=C(/C=C/c1c(-c2cccc(Cl)c2)nc2sc(C(F)(F)F)nn12)NC1CCC1 [Example 0083]
4.13,,O=C(/C=C/c1c(-c2cccc(Cl)c2)nc2sc(C(F)(F)F)nn12)NC1CCCC1 [Example 0084]
4.46,,O=C(/C=C/c1c(-c2cccc(Cl)c2)nc2sc(C(F)(F)F)nn12)NC1CCCCC1 [Example 0085]
3.81,,O=C(/C=C/c1c(-c2cccc(Cl)c2)nc2sc(C(F)(F)F)nn12)NCC1CC1 [Example 0086]
3.99,,CCC(C)NC(=O)/C=C/c1c(-c2cccc(Cl)c2)nc2sc(C(F)(F)F)nn12 (stereo not shown) [Example 0087]
4.37,,CCCC(C)NC(=O)/C=C/c1c(-c2cccc(Cl)c2)nc2sc(C(F)(F)F)nn12 (stereo not shown) [Example 0088]
3.46,,COCC(C)NC(=O)/C=C/c1c(-c2cccc(Cl)c2)nc2sc(C(F)(F)F)nn12 (stereo not shown) [Example 0089]
4.32,,CC(C)C(C)NC(=O)/C=C/c1c(-c2cccc(Cl)c2)nc2sc(C(F)(F)F)nn12 (stereo not shown) [Example 0094]
4.37,,CC(NC(=O)/C=C/c1c(-c2cccc(Cl)c2)nc2sc(C(F)(F)F)nn12)c1ccccc1 (stereo not shown) [Example 0108]
4.56,,CC(COc1ccccc1)NC(=O)/C=C/c1c(-c2cccc(Cl)c2)nc2sc(C(F)(F)F)nn12 (stereo not shown) [Example 0113]
2.8,,CC(NC(=O)/C=C/c1c(-c2cccc(Cl)c2)nc2sc(C(F)(F)F)nn12)c1cccnc1 (stereo not shown) [Example 0124]
3.63,,O=C(/C=C/c1c(-c2cccc(Cl)c2)nc2sc(C(F)(F)F)nn12)NOCC1CC1 [Example 0130]
4.23,,CC(ONC(=O)/C=C/c1c(-c2cccc(Cl)c2)nc2sc(C(F)(F)F)nn12)c1ccccc1 (stereo not shown) [Example 0132]
4.27,,CCC(CC)NC(=O)/C=C/c1c(-c2cccc(Cl)c2)nc2sc(C(F)(F)F)nn12 [Example 0134]
4.0,,C=CCN(C)C(=O)/C=C/c1c(-c2cccc(Cl)c2)nc2sc(C(F)(F)F)nn12 [Example 0137]
4.63,,CC(C)CN(C)C(=O)/C=C/c1c(-c2cccc(Cl)c2)nc2sc(C(F)(F)F)nn12 [Example 0138]
4.28,,CCN(CC)C(=O)/C=C/c1c(-c2cccc(Cl)c2)nc2sc(C(F)(F)F)nn12 [Example 0140]
4.37,,O=C(/C=C/c1c(-c2cccc(Cl)c2)nc2sc(C(F)(F)F)nn12)N1CCCCC1 [Example 0141]
2.82,,CCNC(=O)/C=C/c1c(-c2ccccc2Cl)nc2sc(C(F)(F)F)nn12 [Example 0147]
3.72,,CC(C)(C)NC(=O)/C=C/c1c(-c2ccccc2Cl)nc2sc(C(F)(F)F)nn12 [Example 0150]
3.55,,O=C(/C=C/c1c(-c2ccccc2Cl)nc2sc(C(F)(F)F)nn12)NC1CCCC1 [Example 0154]
3.9,,O=C(/C=C/c1c(-c2ccccc2Cl)nc2sc(C(F)(F)F)nn12)NC1CCCCC1 [Example 0155]
4.08,,CCC(NC(=O)C=Cc1c(-c2ccccc2Cl)nc2sc(C(F)(F)F)nn12)c1ccccc1 (stereo not shown) [Example 0190]
3.7,,O=C(/C=C/c1c(-c2ccccc2Cl)nc2sc(C(F)(F)F)nn12)NCc1ccc(F)cc1 [Example 0191]
4.82,,CCC(NC(=O)C=Cc1c(-c2ccccc2Cl)nc2sc(C(F)(F)F)nn12)C1CCCCC1 (stereo not shown) [Example 0196]

Physical data (logP),Physical data: log P,Compound
4.09,,O=C(/C=C/c1c(-c2ccccc2Cl)nc2sc(C(F)(F)F)nn12)NCCc1ccc(Cl)cc1 [Example 0199]
3.18,,O=C(/C=C/c1c(-c2ccccc2Cl)nc2sc(C(F)(F)F)nn12)NOCC1CC1 [Example 0211]
,3.61,CCN(CC)C(=O)/C=C/c1c(-c2ccccc2Cl)nc2sc(C(F)(F)F)nn12 [Example 0221]
,3.76,O=C(/C=C/c1c(-c2ccccc2Cl)nc2sc(C(F)(F)F)nn12)N1CCCCC1 [Example 0222]
,3.85,Cc1ccccc1-c1nc2sc(C(F)(F)F)nn2c1/C=C/C(=O)NC(C)(C)C [Example 0231]
,2.99,Cc1ccccc1-c1nc2sc(C(F)(F)F)nn2c1/C=C/C(=O)NC1CC1 [Example 0233]
,3.41,Cc1ccccc1-c1nc2sc(C(F)(F)F)nn2c1/C=C/C(=O)NC1CCC1 [Example 0234]
,3.68,Cc1ccccc1-c1nc2sc(C(F)(F)F)nn2c1/C=C/C(=O)NC1CCCC1 [Example 0235]
,4.03,Cc1ccccc1-c1nc2sc(C(F)(F)F)nn2c1/C=C/C(=O)NC1CCCCC1 [Example 0236]
,3.37,Cc1ccccc1-c1nc2sc(C(F)(F)F)nn2c1/C=C/C(=O)NCC1CC1 [Example 0237]
,3.94,Cc1ccccc1-c1nc2sc(C(F)(F)F)nn2c1/C=C/C(=O)NC(C)c1ccccc1 (stereo not shown) [Example 0260]
,4.18,CCC(NC(=O)C=Cc1c(-c2ccccc2C)nc2sc(C(F)(F)F)nn12)c1ccccc1 (stereo not shown) [Example 0261]
,4.18,Cc1ccccc1-c1nc2sc(C(F)(F)F)nn2c1/C=C/C(=O)NC(C)COc1ccccc1 (stereo not shown) [Example 0265]
,4.92,CCC(NC(=O)C=Cc1c(-c2ccccc2C)nc2sc(C(F)(F)F)nn12)C1CCCCC1 (stereo not shown) [Example 0267]
,3.26,Cc1ccccc1-c1nc2sc(C(F)(F)F)nn2c1/C=C/C(=O)NOCC1CC1 [Example 0282]
,3.81,Cc1ccccc1-c1nc2sc(C(F)(F)F)nn2c1/C=C/C(=O)NOC(C)c1ccccc1 (stereo not shown) [Example 0284]
,3.75,CCN(CC)C(=O)/C=C/c1c(-c2ccccc2C)nc2sc(C(F)(F)F)nn12 [Example 0292]
,3.85,Cc1ccccc1-c1nc2sc(C(F)(F)F)nn2c1/C=C/C(=O)N1CCCCC1 [Example 0293]
,2.91,Cc1ccccc1-c1nc2sc(C(F)(F)F)nn2c1/C=C/C(=O)N1CCOCC1 [Example 0294]
,3.81,CC(C)(C)NC(=O)/C=C/c1c(-c2ccc(F)cc2)nc2sc(C(F)(F)F)nn12 [Example 0302]
,2.95,O=C(/C=C/c1c(-c2ccc(F)cc2)nc2sc(C(F)(F)F)nn12)NC1CC1 [Example 0304]
,3.41,O=C(/C=C/c1c(-c2ccc(F)cc2)nc2sc(C(F)(F)F)nn12)NC1CCC1 [Example 0305]
,3.63,O=C(/C=C/c1c(-c2ccc(F)cc2)nc2sc(C(F)(F)F)nn12)NC1CCCC1 [Example 0306]
,3.99,O=C(/C=C/c1c(-c2ccc(F)cc2)nc2sc(C(F)(F)F)nn12)NC1CCCCC1 [Example 0307]
,3.33,O=C(/C=C/c1c(-c2ccc(F)cc2)nc2sc(C(F)(F)F)nn12)NCC1CC1 [Example 0308]

Physical data (logP),Physical data: log P,Compound
,3.55,CCC(C)NC(=O)/C=C/c1c(-c2ccc(F)cc2)nc2sc(C(F)(F)F)nn12 (stereo not shown) [Example 0309]
,3.9,CCCC(C)NC(=O)/C=C/c1c(-c2ccc(F)cc2)nc2sc(C(F)(F)F)nn12 (stereo not shown) [Example 0310]
,3.07,COCC(C)NC(=O)/C=C/c1c(-c2ccc(F)cc2)nc2sc(C(F)(F)F)nn12 (stereo not shown) [Example 0311]
,3.81,CC(C)C(C)NC(=O)/C=C/c1c(-c2ccc(F)cc2)nc2sc(C(F)(F)F)nn12 (stereo not shown) [Example 0316]
,3.9,CC(NC(=O)/C=C/c1c(-c2ccc(F)cc2)nc2sc(C(F)(F)F)nn12)c1ccccc1 (stereo not shown) [Example 0331]
,4.18,CCC(NC(=O)C=Cc1c(-c2ccc(F)cc2)nc2sc(C(F)(F)F)nn12)c1ccccc1 (stereo not shown) [Example 0332]
,4.13,CC(COc1ccccc1)NC(=O)/C=C/c1c(-c2ccc(F)cc2)nc2sc(C(F)(F)F)nn12 (stereo not shown) [Example 0336]
,4.92,CCC(NC(=O)C=Cc1c(-c2ccc(F)cc2)nc2sc(C(F)(F)F)nn12)C1CCCCC1 (stereo not shown) [Example 0338]
,2.45,CC(NC(=O)/C=C/c1c(-c2ccc(F)cc2)nc2sc(C(F)(F)F)nn12)c1ccccn1 (stereo not shown) [Example 0345]
,3.81,CC(ONC(=O)/C=C/c1c(-c2ccc(F)cc2)nc2sc(C(F)(F)F)nn12)c1ccccc1 (stereo not shown) [Example 0355]
,3.81,CCC(CC)NC(=O)/C=C/c1c(-c2ccc(F)cc2)nc2sc(C(F)(F)F)nn12 [Example 0357]
,3.72,CCN(CC)C(=O)/C=C/c1c(-c2ccc(F)cc2)nc2sc(C(F)(F)F)nn12 [Example 0363]
,3.85,O=C(/C=C/c1c(-c2ccc(F)cc2)nc2sc(C(F)(F)F)nn12)N1CCCCC1 [Example 0364]
,2.91,O=C(/C=C/c1c(-c2ccc(F)cc2)nc2sc(C(F)(F)F)nn12)N1CCOCC1 [Example 0365]
,3.85,CC(C)NC(=O)/C=C/c1c(-c2cccc(C(F)(F)F)c2)nc2sc(C(F)(F)F)nn12 [Example 0371]
,4.41,CC(C)(C)NC(=O)/C=C/c1c(-c2cccc(C(F)(F)F)c2)nc2sc(C(F)(F)F)nn12 [Example 0373]
,3.59,O=C(/C=C/c1c(-c2cccc(C(F)(F)F)c2)nc2sc(C(F)(F)F)nn12)NC1CC1 [Example 0375]
,4.03,O=C(/C=C/c1c(-c2cccc(C(F)(F)F)c2)nc2sc(C(F)(F)F)nn12)NC1CCC1 [Example 0376]
,4.27,O=C(/C=C/c1c(-c2cccc(C(F)(F)F)c2)nc2sc(C(F)(F)F)nn12)NC1CCCC1 [Example 0377]
,4.61,O=C(/C=C/c1c(-c2cccc(C(F)(F)F)c2)nc2sc(C(F)(F)F)nn12)NC1CCCCC1 [Example 0378]
,3.94,O=C(/C=C/c1c(-c2cccc(C(F)(F)F)c2)nc2sc(C(F)(F)F)nn12)NCC1CC1 [Example 0379]
,4.18,CCC(C)NC(=O)/C=C/c1c(-c2cccc(C(F)(F)F)c2)nc2sc(C(F)(F)F)nn12 (stereo not shown) [Example 0380]
,4.56,CCCC(C)NC(=O)/C=C/c1c(-c2cccc(C(F)(F)F)c2)nc2sc(C(F)(F)F)nn12 (stereo not shown) [Example 0381]
